Results published in PMC12594101, “Biphasic control of the B cell transcriptome by mTORC1 and GSK3” (Cell reports, 2025).

Experiments:
[1] = molecular target: GSK3A (Homo sapiens, UniProt P49840); assay: in vitro HotSpot kinase assay (Reaction Biology), 10-dose IC50 in triplicate; type: biochemical
[2] = molecular target: GSK3B (Homo sapiens, UniProt P49841); assay: as above; type: biochemical
Chain of GSK3B (P49841 whole entry): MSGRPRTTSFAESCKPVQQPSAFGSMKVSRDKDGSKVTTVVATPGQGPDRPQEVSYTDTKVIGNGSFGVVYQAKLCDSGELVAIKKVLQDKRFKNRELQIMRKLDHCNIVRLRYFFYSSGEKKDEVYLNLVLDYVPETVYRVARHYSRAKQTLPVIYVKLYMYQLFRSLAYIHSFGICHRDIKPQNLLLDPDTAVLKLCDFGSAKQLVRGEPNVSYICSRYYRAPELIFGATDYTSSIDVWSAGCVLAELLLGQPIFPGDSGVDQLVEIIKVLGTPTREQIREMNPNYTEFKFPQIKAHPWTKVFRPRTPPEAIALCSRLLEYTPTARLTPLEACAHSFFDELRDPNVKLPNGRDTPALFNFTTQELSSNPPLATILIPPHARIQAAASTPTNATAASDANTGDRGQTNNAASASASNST

Chain of GSK3A (P49840 2-483): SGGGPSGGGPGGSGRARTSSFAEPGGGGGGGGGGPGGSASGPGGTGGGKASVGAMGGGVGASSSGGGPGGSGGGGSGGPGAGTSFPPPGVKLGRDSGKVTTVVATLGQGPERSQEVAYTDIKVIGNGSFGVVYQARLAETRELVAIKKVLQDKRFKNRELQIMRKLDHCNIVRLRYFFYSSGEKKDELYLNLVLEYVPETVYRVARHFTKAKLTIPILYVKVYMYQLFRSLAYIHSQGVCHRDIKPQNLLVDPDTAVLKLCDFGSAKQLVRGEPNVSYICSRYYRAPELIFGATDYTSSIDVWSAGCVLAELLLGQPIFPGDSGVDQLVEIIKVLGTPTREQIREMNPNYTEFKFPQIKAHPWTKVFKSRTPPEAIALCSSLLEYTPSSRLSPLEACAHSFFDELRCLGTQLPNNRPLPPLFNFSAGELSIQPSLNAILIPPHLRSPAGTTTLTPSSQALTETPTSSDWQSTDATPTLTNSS

CCn1cc(C(=O)O)c(=O)c2c(N)c(F)c(NC3CCCCC3)cc21 [AS1842856]
IC50 [1]: 2.8 nM | IC50 [2]: 2.8 nM
